Broadly, the IC50 is the midpoint of a concentration-inhibition curve.

The text below walks through data of patent publication US8481532B2, “PDE-10 inhibitors” (EnVivo Pharmaceuticals, Inc., priority 2008, dated 2013).

Test [1] has as its target Human PDE10A1 (Homo sapiens, UniProt Q9Y233). Briefly: hPDE10A1 Enzyme Inhibition ([3H]-cAMP scintillation assay). Format: biochemical. As for the experimental part: • hPDE10A1 Enzyme Activity: […] samples of serially diluted Human PDE10A1 enzyme were incubated with 50 μl of [^3H]-cAMP for 20 minutes (at 37° C.). Reactions were carried out in Greiner 96 deep well 1 ml master-block. The enzyme was diluted in 20 mM Tris HCl pH7.4 and [^3H]-cAMP was diluted in 10 mM MgCl2, 40 mM Tris.HCl pH 7.4. The reaction was terminated by denaturing the PDE enzyme (at 70° C.) after which [^3H]-5′-AMP was converted to [^3H]-adenosine by adding 25 μl snake venom nucleotidase and incubating for 10 minutes (at 37° C.). Adenosine, being neutral, was separated from charged cAMP or AMP by the addition of 200 μl Dowex resin. Samples were shaken for 20 minutes then centrifuged for 3 minutes at 2,500 r.p.m. 50 μl of supernatant was removed and added to 200 μl of MicroScint-20 in white plates (Greiner 96-well Optiplate) and shaken for 30 minutes before reading on Perkin Elmer TopCount Scintillation Counter. • hPDE10A1 Enzyme Inhibition: To check inhibition profile 11 μl of serially diluted inhibitor was added to 50 μl of [^3H]-cAMP and 50 μl of diluted Human PDE10A1 and assay was carried out as in the enzyme activity assay. Data was analysed using Prism software (GraphPad Inc).

In test [2] the test system is rats. As to conditions: cited from earlier work.
Where [3] appears, read: Human PDE10A1, [3H]-cAMP substrate, 20 minutes at 37° C., read-out: hPDE10A1 IC50 Band.

Molecules are shown by their SMILES. Where two headings read alike, the source gives them in different places.

Sequence of Human PDE10A1 (Q9Y233 1-779 isoform Q9Y233-1): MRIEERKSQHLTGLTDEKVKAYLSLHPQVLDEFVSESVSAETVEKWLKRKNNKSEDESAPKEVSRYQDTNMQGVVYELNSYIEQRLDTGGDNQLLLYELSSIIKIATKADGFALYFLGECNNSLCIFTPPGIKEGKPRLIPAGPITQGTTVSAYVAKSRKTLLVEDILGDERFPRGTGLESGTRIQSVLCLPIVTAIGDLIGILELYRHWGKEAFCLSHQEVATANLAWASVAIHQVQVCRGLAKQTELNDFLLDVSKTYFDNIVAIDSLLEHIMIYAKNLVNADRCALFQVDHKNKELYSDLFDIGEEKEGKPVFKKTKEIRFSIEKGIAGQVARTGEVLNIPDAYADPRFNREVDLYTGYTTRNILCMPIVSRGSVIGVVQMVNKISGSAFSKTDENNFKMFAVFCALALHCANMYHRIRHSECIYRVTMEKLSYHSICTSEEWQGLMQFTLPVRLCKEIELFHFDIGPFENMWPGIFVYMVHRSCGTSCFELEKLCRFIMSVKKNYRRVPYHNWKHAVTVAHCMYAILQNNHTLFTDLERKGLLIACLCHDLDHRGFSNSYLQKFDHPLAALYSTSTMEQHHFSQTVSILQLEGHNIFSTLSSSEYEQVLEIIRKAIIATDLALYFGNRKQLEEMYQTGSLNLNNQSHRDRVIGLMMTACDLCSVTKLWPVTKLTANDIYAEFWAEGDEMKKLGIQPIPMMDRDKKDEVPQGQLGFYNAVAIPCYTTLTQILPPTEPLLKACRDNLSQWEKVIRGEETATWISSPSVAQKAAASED

As to `C/C(=N\NC(=O)C1CC1c1ccc(C(C)(C)C)cc1)c1cccc2cnccc12` (stereo not shown) [Example 197, (E)-2-(4-tert-butylphenyl)-N′-(1-(isoquinolin-5-yl)ethylidene)cyclopropanecarbohydrazide], in test [1] (setting [3]), the IC50 was less than 1 µM.
For `CN(/N=C/c1cccc2cnccc12)C(=O)C1CC1c1ccc(C(C)(C)C)cc1` (stereo not shown) [Example 198, (E)-2-(4-tert-butylphenyl)-N′-(isoquinolin-5-ylmethylene)-N-methylcyclopropanecarbohydrazide], the IC50 in test [1] (setting [3]) was less than 0.2 µM.
Still for that read-out and setting: with `O=C(N/N=C/c1cccc2cnccc12)C1CC1c1ccc(-c2ccccc2)cc1` (stereo not shown) [Example 196, (E)-2-(biphenyl-4-yl)-N′-(isoquinolin-5-ylmethylene)cyclopropanecarbohydrazide] the figure was less than 0.2 µM.
For the compound `CC(C)(C)c1ccc(C2CC2C(=O)N/N=C/c2cccc3cnccc23)cc1` (stereo not shown) [Example 122, (E)-2-(4-tert-butylphenyl)-N′-(isoquinolin-5-ylmethylene) cyclopropanecarbohydrazide], the IC50 in test [1] was less than 0.2 µM.
Regarding `COc1ccc(Cc2nccc3cc(OC)c(OC)cc23)cc1OC` [papaverine], in test [2], the apomorphine induced stereotypies result is recorded as “reduces”, the haloperidol induced catalepsy result is on record as “increases” and the “rat brain dopamine levels” value is recorded as “reduces”.
